For 29 molecules, DOSE results are on record in ChEMBL document CHEMBL1121749, “Beta-adrenergic blocking agents. 21. threo-1-(Aryloxy)-3-(alkylamino)butan-2-ols” (J Med Chem, 1981).

Each structure is given as a SMILES string. Activity calls are given as the source filed them. The calls are words filed in the database; no cut-off is given here.

This assay has as its target Adrenergic receptor beta (Homo sapiens) (UniProt P08588+P07550+P13945). As to the kind of experiment: Beta adrenoceptor blocking potency by inhibition of 50% of the tachycardia produced by a submaximal dose of the isoproterenol (0.2ug/kg, intravenously). To be noted: Felis catus. Format: functional.
Turning to `CCC(=O)Nc1cccc2c(OCC(O)C(C)NC(C)C)cccc12` (centres undefined), the DOSE entry is “inactive”.

In the case of `CC(NC(C)(C)C)C(O)COc1ccccc1C#N` (centres undefined), the DOSE entry was “inactive”. The value for `CC(=O)Nc1ccc(OCC(O)C(C)N)cc1` (centres undefined) was “inactive”; that for `CCOc1cc(CNC(=O)CC)ccc1OCC(O)C(C)NC(C)C` (centres undefined) was “inactive”.

Turning to `CC(C)NC(C)C(O)COc1ccccc1-c1nc2ccccc2s1` (centres undefined), the DOSE entry was “inactive”.

Take `CCC(=O)Nc1ccc(OCC(O)C(C)NC(C)(C)C)cc1` (centres undefined): the DOSE entry is “inactive”. The value for `CC(C)NC(C)C(O)COc1ccc(OCc2ccccc2)cc1` (centres undefined) was “inactive”; that for `Cc1csc2cccc(OCC(O)C(C)NC(C)(C)C)c12` (centres undefined) was “inactive”; that for `CC(C)NC(C)C(O)COc1ccc(Cl)c(Cl)c1` (centres undefined) was “inactive”. The value for `CC(NC(C)(C)C)C(O)COc1cccc2ccccc12` (centres undefined) was “inactive”. The value for `Cc1ccc(OCC(O)C(C)NC(C)C)cc1` (centres undefined) was “inactive”; that for `CC(NC(C)(C)C)C(O)COc1cccc2sccc12` (centres undefined) was “inactive”; that for `CC(=O)Nc1ccc(OCC(O)C(C)NC(C)(C)CO)cc1` (centres undefined) was “inactive”. In the case of `COc1ccc(CCNC(C)C(O)COc2ccc(CC(N)=O)cc2)cc1OC` (centres undefined), the DOSE entry was “inactive”. With `CC(C)NC(C)C(O)COc1ccc2ccccc2c1` (centres undefined) the entry was “inactive”; with `CC(C)CNC(=O)c1ccc(OCC(O)C(C)NC(C)C)c(Cl)c1` (centres undefined), “inactive”; with `CC(C)CNC(C)C(O)COc1cccc2ccccc12` (centres undefined), “inactive”. With `CC(=O)Nc1ccc(OCC(O)C(C)NC(C)(C)C)cc1` (centres undefined) the entry was “inactive”. The value for `CCNC(C)C(O)COc1ccc(NC(C)=O)cc1` (centres undefined) was “inactive”; that for `CC(C)NC(C)C(O)COc1ccc(CC(N)=O)cc1` (centres undefined) was “inactive”. As to `CC(NC(C)(C)C)C(O)COc1ccccc1/C=C/C#N` (centres undefined), the DOSE result is “inactive”. With `CC(NC(C)(C)C)C(O)COc1ccc(CC(N)=O)cc1F` (centres undefined) the entry was “inactive”; with `COc1ccc(CCNC(C)C(O)COc2cccc3ccccc23)cc1OC` (centres undefined), “inactive”; with `CCNC(C)C(O)COc1ccc(CC(N)=O)cc1` (centres undefined), “inactive”. With `CCC(=O)Nc1cccc2c(OCC(O)C(C)NC(C)(C)C)cccc12` (centres undefined) the entry was “inactive”; with `CCC(=O)Nc1ccc(OCC(O)C(C)NC(C)(C)C)c([N+](=O)[O-])c1` (centres undefined), “inactive”; with `CC(=O)Nc1ccc(OCC(O)C(C)NC(C)C)cc1` (centres undefined), “inactive”. The value for `CC(NC(C)(C)C)C(O)COc1ccc(CC(N)=O)cc1` (centres undefined) was “inactive”; that for `C=CCc1cc(CC(N)=O)ccc1OCC(O)C(C)NC(C)(C)C` (centres undefined) was “inactive”.
